Assay results reported in patent US10561639B2, “Composition comprising a TNFR agonist and at least one thioredoxin inhibitor for use in the treatment of carcinoma” (UNIVERSITY OF HUDDERSFIELD, priority 2013, dated 2020).

B1: mCD40L: membrane CD40 ligand delivered by co-culture with growth-arrested third-party cells expressing mCD40L (protein, UniProt P29965 1-261, looked up)
chain: MIETYNQTSPRSAATGLPISMKIFMYLLTVFLITQMIGSALFAVYLHRRLDKIEDERNLHEDFVFMKTIQRCNTGERSLSLLNCEEIKSQFEGFVKDIMLNKEETKKENSFEMQKGDQNPQIAAHVISEASSKTTSVLQWAEKGYYTMSNNLVTLENGKQLTVKRQGLYYIYAQVTFCSNREASSQAPFIASLCLKSPGRFERILLRAANTHSSAKPCGQQSIHLGGVFELQPGASVFVNVTDPSQVSHGTGFTSFGLLKL
modifications: full-length expressed on growth-arrested feeder cells

Tests used:
[1] = system: colorectal carcinoma cells (HCT116); experiment: Sensolyte caspase activity assay in colorectal carcinoma cells (HCT116); format: cell-based; details: 24 hours, PX-12 3 μM, G28-5 10 ug/mL, FIG. 3
Procedure: Apoptosis was assessed on the basis of caspase activity detection after 24 hours of treatment using the Sensolyte (Anaspec) assay (Cambridge Biosciences). Results are expressed as relative fluorescence (relative caspase activity) in comparison to negative controls and are representative of two independent experiments in which six technical replicates were carried out for each condition.
Carcinoma cell lines EJ and HCT116 (obtained from the European Collection of Cell Cultures, ECACC) were maintained in a 50:50 (v/v) mixture of Dulbecco's Modified Eagle Medium (DMEM, Sigma) and Roswell Park Memorial Institute 1640 (RPMI, Sigma) (DR), supplemented with 5% Fetal calf serum (FCS, Biosera) and 1% (2 mM) L-Glutamine (Sigma). […] Cells were removed with a 10 mL suspension of DR 5% and counted in single cell suspension using an “improved Neubauer” haemocytometer (VWR).
EJ and HT116 cells were seeded into white 96-well plates (at […] and 6×10^3 cells per well, respectively) and left incubated overnight. […] Cells were then incubated for 48 hours before assessing cell death using the CytoTox-Glo™ cell death detection assay (according to the manufacturer's instructions) on a FLUOstar™ OPTIMA (BMG Labtech) plate reader. Alternatively, after 24 or 48 hours caspase activity was determined using the SensoLyte® Homogenous AFC Caspase-3/7 Assay Kit (Anaspec). […]

[2] = system: Bladder carcinoma cells (EJ); experiment: Cytotox-Glo apoptosis assay in bladder carcinoma cells (EJ); format: cell-based; details: 48 hours, G28-5 10 ug/mL, PX-12 at minimally cytotoxic concentration, FIG. 1
Procedure: Referring firstly to FIG. 1 where comparative results are shown from Bladder carcinoma cells (EJ) treated with soluble CD40 agonist (agonistic antibody G28-5), the indicated concentration of Trx inhibitor (PX-12), or their combination and results compared to untreated (Control) cells. Apoptosis was assessed 48 hours later using the Cytotox-Glo assay (Promega). Raw data (relative luminescence units) are shown and results are representative of three independent experiments in which six technical replicates were carried out for each condition.
Apoptosis was assessed 48 hours later using the Cytotox-Glo assay (Promega). Results are expressed as relative luciferase in comparison to negative controls and are representative of four independent experiments in which six technical replicates were carried out for each condition.
Carcinoma cell lines EJ and HCT116 (obtained from the European Collection of Cell Cultures, ECACC) were maintained in a 50:50 (v/v) mixture of Dulbecco's Modified Eagle Medium (DMEM, Sigma) and Roswell Park Memorial Institute 1640 (RPMI, Sigma) (DR), supplemented with 5% Fetal calf serum (FCS, Biosera) and 1% (2 mM) L-Glutamine (Sigma). Cells were incubated at 37° C. in a humidified atmosphere of 5% CO2 in air. […] Cells were removed with a 10 mL suspension of DR 5% and counted in single cell suspension using an “improved Neubauer” haemocytometer (VWR). […]

[3] = PX-12 alone; cited from earlier work
[4] = system: colorectal carcinoma SW480 cells; experiment: Cytotox-Glo % cell death in colorectal carcinoma SW480 cells; format: cell-based; details: 12 hours, BS-1 5 microg/mL, PX-12 4 microM, FIG. 8
Procedure: Apoptosis was assessed 12 hours later using the Cytotox-Glo assay (Promega). Results were obtained as relative luciferase activity in comparison to negative controls and subsequently percentage (%) cell death values were deduced for each condition according to the manufacturer's instructions. Results are representative of two independent experiments in which six technical replicates were carried out for each condition.

[5] = system: phospho-JNK and Bax in ASK-1 knock-out EJ cell derivatives ('S18'); experiment: Immunoblotting of phospho-JNK and Bax after mCD40L; format: cell-based; details: cells with ASK-1 knockdown (S18), FIGS. 6a and 6b
Procedure: (§1) The cells were treated with mCD40L and apoptosis was assessed 48 hours later using the Cytotox-Glo assay (Promega) and by measuring levels of phospho-JNK and Bax using immune-blotting. The images from the blotting can be seen in FIGS. 6a and 6b.

[6] = system: ASK-1 protein knock-out EJ cell derivatives ('S18'); experiment: Cytotox-Glo apoptosis assay in ASK-1 knock-out EJ derivatives treated with mCD40L; format: cell-based; details: S18 cells versus EJ cells, 48 hours, FIG. 5
Procedure: as §1

Molecule	cytotoxicity / apoptosis by caspase activation (relative caspase activity) [1]	cytotoxicity / apoptosis (Cytotox-Glo, relative luminescence units) [2]	doses required for conventional PX-12 treatment to obtain cytotoxicity [3] [µg/mL]	pro-apoptotic activity / cytotoxicity (% Cell Death) [4]	p-JNK and Bax induction [5]	apoptosis after mCD40L in ASK-1 knockdown cells (Cytotox Glo) [6]
CCC(C)SSc1ncc[nH]1 (stereo not drawn) [PX-12, 2-[(1-Methylpropyl)dithio]-1H-imidazole]	some cytotoxicity	little	10 to 25	some but not extensive cytotoxicity	–	–
B1	–	–	–	–	lack of p-JNK and Bax induction	inhibition of apoptosis
